Results as given in PMC3189958, “Salivary PYY: A Putative Bypass to Satiety” (PLoS ONE, 2011).
No end group written: not given here.

Legend:
[1] = biological target: T1, Y2 receptor (Mus musculus, UniProt P97295); test: Y2R antagonist study: oral spray of BIIE0246/PYY3-36 mixture, 2 hr FI after 24 hr fast; assay type: in vivo
T1 construct: from tissue; host or cells: live mice; oral mucosa / tongue epithelium
T1 sequence (P97295 1-381): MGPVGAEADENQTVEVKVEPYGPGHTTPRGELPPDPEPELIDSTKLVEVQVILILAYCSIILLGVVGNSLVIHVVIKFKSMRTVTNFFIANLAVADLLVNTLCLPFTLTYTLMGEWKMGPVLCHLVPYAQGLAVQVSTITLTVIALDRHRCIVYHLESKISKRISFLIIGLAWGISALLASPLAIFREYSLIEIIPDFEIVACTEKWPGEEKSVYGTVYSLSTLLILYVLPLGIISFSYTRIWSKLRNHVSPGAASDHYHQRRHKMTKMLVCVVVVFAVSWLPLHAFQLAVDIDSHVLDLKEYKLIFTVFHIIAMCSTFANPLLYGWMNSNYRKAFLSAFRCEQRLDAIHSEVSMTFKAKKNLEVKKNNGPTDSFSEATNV
Protocol: Direct proof of PYY3-36/Y2R interaction was obtained by utilizing a selective Y2 receptor antagonist BIIE0246 [26]. The antagonist and PYY3-36 agonist (12 mg/100 g BW) were mixed at the 50∶1 molar ratio, respectively, and the mixture was used to treat fasted mice as described above (Fig. 6H).
(§1) One ml total volume sterile vials were obtained from Sephora. Murine PYY3-36 (Bachem) was diluted in sterile H2O. All 8–10 weeks old mice were individually housed. Mice were conditioned to the oral spray with vehicle after 24 hours fast on three separate occasions. Groups were randomized by FI and BW. […] The applied dose was estimated using calculated average volume ([…]) delivered per puff. Food was provided 10 min after the spray was applied and the amount consumed was measured at either 1 hr after the treatment, or at several time points (1, 2, 4, 6, 12, 18, and 24 hours). Taking into account the nocturnal feeding pattern, the experiment was conducted during the night with the first measurement taken at 2000 hrs. Each experiment was done at least 3 times in a crossover manner with 8 mice per group. For the Y2R antagonist study, BIIE0246 compound (Tocris Bioscience, Ellisville, MO) was dissolved in 100% EtOH (0.2 mM) and the stock solution was mixed with PYY3-36 aqueous solution at the 50∶1 molar ratio (BIIE0246/PYY3-36) with the final concentration of 2% EtOH in the mixture. […]

[2] = PYY3-36 in saliva after i.p. injection (RIA); assay type: in vivo, mouse; conditions: male C57Bl/6J mice, 10 min post injection, n = 10 per group
Protocol: Some proteins enter saliva from salivary glands where they are expressed and secreted in an exocrine fashion via zymogen granules. Other peptides can enter saliva as a transudate from serum. To establish the source of salivary PYY3-36 we asked whether peptide circulating in a bloodstream can be transported into saliva. To this end, mice were injected intraperitoneally (i.p.) with increasing doses of murine synthetic PYY3-36 (Fig. 1F).
Salivation was stimulated as described earlier. Whole saliva was collected for 5 min from the oral cavity into Eppendorf tubes containing 5000 U Kallikrein inhibitor (Biomedicals) and 50 mM DPP-IV inhibitor (Linco Research). Saliva samples were frozen at −80°C until analyzed.
PYY3-36 from saliva and plasma was measured by PYY3-36 RIA kit (Phoenix Pharmaceuticals). The identification of PYY3-36 from human saliva was performed by reverse-phase high performance liquid chromatography (RP-HPLC) followed by Matrix-Assisted Laser Desorption Ionization – Time of Flight (MALDI-TOF) mass spectrometry (MS). PYY3-36 synthetic peptide (Bachem) was used for calibration of all purification steps. Briefly, saliva was pre-purified using a Sep-Pak C18 cartridge (Waters) followed by purification on RP-HPLC uBondapak C18 column (Waters) as described. […]

[3] = system: PYY KO mice; test: Oral spray satiation study, FI over 24 hours after single treatment, PYY KO mice; assay type: in vivo, mouse; conditions: n = 8/group
Protocol: To investigate the duration of action of orally applied PYY3-36 we conducted standard satiation studies in C57Bl/6J as well as in PYY KO mice measuring FI over 24 hours after single treatment.
as §1, with “mixture. Prior to this experiment, mice were conditioned to 2% EtOH spray on three separate occasions.” for “mixture.”

[4] = system: C57Bl/6J mice; test: Oral spray acute augmentation: food intake after 24 hours fasting; assay type: in vivo, mouse
Protocol: Figure 6 Oral PYY3-36 augmentation therapy. […] (B) Dose-response effect of PYY3-36 on 2 hr FI vs. control (n = 8 each group). (C) Effect of PYY3-36 oral spray on FI in C57Bl/6J mice measured at 1, 2, 6, 12, 18, and 24 hr post treatment (n = 8/group). (D) Effect of PYY3-36 oral spray on FI in PYY^-/- mice measured at 1, 2, 6, 12, 18, and 24 hr post treatment (n = 8/group). (E) Average 24-hr FI in DIO mice treated with daily PYY3-36 OS (18 mg/100 g). (F) Effect of daily PYY3-36 OS (18 mg/100 g) treatment on BW change in DIO C57Bl/6J mice (n = 9 per each group). (G) Concentration of PYY3-36 in plasma of PYY KO mice 10 min after PYY3-36 (18 mg/100 g BW), or control oral spray vs. PYY3-36 injected i.p. (6 mg/100 g BW) (n = 10 per group).
One ml total volume sterile vials were obtained from Sephora. Murine PYY3-36 (Bachem) was diluted in sterile H2O. All 8–10 weeks old mice were individually housed. Mice were conditioned to the oral spray with vehicle after 24 hours fast on three separate occasions. Groups were randomized by FI and BW. […] The applied dose was estimated using calculated average volume ([…]) delivered per puff. Food was provided 10 min after the spray was applied and the amount consumed was measured at either 1 hr after the treatment, or at several time points (1, 2, 4, 6, 12, 18, and 24 hours). Taking into account the nocturnal feeding pattern, the experiment was conducted during the night with the first measurement taken at 2000 hrs. Each experiment was done at least 3 times in a crossover manner with 8 mice per group. For the Y2R antagonist study, BIIE0246 compound (Tocris Bioscience, Ellisville, MO) was dissolved in 100% EtOH (0.2 mM) and the stock solution was mixed with PYY3-36 aqueous solution at the 50∶1 molar ratio (BIIE0246/PYY3-36) with the final concentration of 2% EtOH in the mixture. Prior to this experiment, mice were conditioned to 2% EtOH spray on three separate occasions. Wherever practical, the behavioral experiments were conducted in a blind fashion with the personnel uninformed about the treatment regimen.

[5] = Concentration of PYY3-36 in plasma after oral spray or i.p. injection (RIA); assay type: in vivo, mouse; conditions: PYY KO mice, n = 10 per group
Protocol: To exclude potential interference with circulating background PYY in the plasma, we used PYY KO mice.
Blood was collected from facial vein puncture into EDTA-coated tubes (Capiject) containing protease inhibitors as described for saliva collection. Plasma samples were frozen at −80°C until analyzed.
PYY3-36 from saliva and plasma was measured by PYY3-36 RIA kit (Phoenix Pharmaceuticals). The identification of PYY3-36 from human saliva was performed by reverse-phase high performance liquid chromatography (RP-HPLC) followed by Matrix-Assisted Laser Desorption Ionization – Time of Flight (MALDI-TOF) mass spectrometry (MS). PYY3-36 synthetic peptide (Bachem) was used for calibration of all purification steps. Briefly, saliva was pre-purified using a Sep-Pak C18 cartridge (Waters) followed by purification on RP-HPLC uBondapak C18 column (Waters) as described. The PYY3-36-containing fraction was collected, air dried and reconstituted in 0.1% formic acid in 50% acetonitrile/water prior to analysis with MALDI-TOF as described, [40].

[6] = system: rodents; conditions: i.p., ref [16]; cited from earlier work
[7] = system: DIO C57Bl/6J mice; test: Repeated once-a-day oral spray in DIO mice fed high fat diet ad libitum (FI and BW); assay type: in vivo, mouse; conditions: daily oral spray 18 mg/100 g, n = 9 per group
Protocol: Figure 6 Oral PYY3-36 augmentation therapy. […] Experiments for each peptide were conducted separately and the results were integrated in one graph as fractions of average amount of FI consumed by the control group. […] (B) Dose-response effect of PYY3-36 on 2 hr FI vs. control (n = 8 each group). (C) Effect of PYY3-36 oral spray on FI in C57Bl/6J mice measured at 1, 2, 6, 12, 18, and 24 hr post treatment (n = 8/group). (D) Effect of PYY3-36 oral spray on FI in PYY^-/- mice measured at 1, 2, 6, 12, 18, and 24 hr post treatment (n = 8/group). (E) Average 24-hr FI in DIO mice treated with daily PYY3-36 OS (18 mg/100 g). (F) Effect of daily PYY3-36 OS (18 mg/100 g) treatment on BW change in DIO C57Bl/6J mice (n = 9 per each group). (G) Concentration of PYY3-36 in plasma of PYY KO mice 10 min after PYY3-36 (18 mg/100 g BW), or control oral spray vs. PYY3-36 injected i.p. (6 mg/100 g BW) (n = 10 per group). (H) Effect of Y2R specific antagonist BIIE0246 on anorexigenic action of PYY3-36 (n = 8 per each group) measured as 2 hr FI after 24 hr fast.*P<0.05, **P<0.01.
Because of the sustained 24-hr effect, we tested whether repeated once-a-day treatment would also affect the FI and BW accumulation over extended period of time when animals were fed high fat (HF) diet ad libitum.

## N=C(N)NCCC[C@H](NC(=O)CC1(CC(=O)N2CCN(C3c4ccccc4NC(=O)c4ccccc43)CC2)CCCC1)C(=O)NCCn1c(=O)n(-c2ccccc2)n(-c2ccccc2)c1=O (stereo partly shown) [BIIE0246]
[1]; BIIE0246 alone, data not shown
  effect of antagonist alone on 2 hr FI: no effect on 2 hr FI
[1]; BIIE0246 mixed with PYY3-36 (12 mg/100 g BW) at 50:1 molar ratio, 2% EtOH, after 24 hr fast, n = 8 per group
  effect of antagonist on the anorexigenic action of PYY3-36, 2 hr FI: completely ablated the anorexigenic effect of PYY3-36

## Peptide YY3-36 [PYY3-36]
[2]
  PYY3-36 in saliva after i.p. injection of increasing doses: significant relationship between the injected dose and the concentration of the peptide detected in saliva
[3]; PYY KO mice, low dose 3 mg/100 g BW
  response of FI over 24 hours to the low dose: responded to the treatment in significant manner observed after 18 and 24 hrs post experiment
[3]; PYY-/- mice, high dose 12 mg/100 g BW
  duration of anorexigenic response, FI over 24 hours after single treatment: significant until the next treatment 24 hrs later
[4]; C57Bl/6J mice, oral spray, high dose 12 mg/100 g BW, n = 8/group
  duration of anorexigenic response, FI over 24 hours after single treatment: significant until the next treatment 24 hrs later
[4]; C57Bl/6J mice, oral spray, low dose 3 mg/100 g BW, n = 8/group
  response of FI over 24 hours to the low dose: only PYY KO mice responded
[4]; oral spray, dose-response, 12 mg/100 g, after 24 hr fast, n = 8 each group (legend Fig. 6B says 2 hr FI)
  one hour FI as % of control values at the maximum applied dose: 81%
[4]; oral spray, single puff, 3 mg/100 g BW, after 24 hours of fasting, food given 10 min after spray, average, n = 10 per group, C57Bl/6J mice
  food consumed less than the control group, 1 hour FI: 12.3%
[5]; i.p. 6 mg/100g BW
  PYY3-36 in plasma 10 min after i.p. injection: significant increase in PYY3-36 found in plasma
[5]; oral spray 18 mg/100 g BW
  PYY3-36 in plasma 10 min after oral spray: no detectable PYY3-36 in the plasma
[6]
  FI after intraperitoneal injection: dose-dependent reduction in FI
[7]; DIO C57Bl/6J mice, HF diet ad libitum
  BW accumulation: retarded BW accumulation which became significantly on day 17th
[7]; DIO mice
  average 24-hr FI of HF food: significantly less HF food

## amylin (KCNTATCATQRLANFLVRSSNNLGPVLPPTNVGSNTY; ends and bridges not checked; cysteine pairing not given here; UniProt P12968 38-74, looked up) [endocrine peptide tested by oral spray application]
[4]; oral spray, similar approach, data not shown
  effect of oral spray application on FI: no change of FI

## glucagon-like peptide-1 (HAEGTFTSDVSSYLEGQAAKEFIAWLVKGR; ends and bridges not checked; UniProt P55095 98-127, looked up) [GLP-1]
[4]; oral spray after 24 hours fasting, GLP-1 3 mg/100 g BW, Exendin-4 10 mg/100 g BW, n = 10 each group
  effect of oral spray on 1 hour FI (satiation) vs control oral spray: induced stronger satiation
